The test system of the experiment is P388 leukemia ip, CD2F1 mice, survival T/C. The experiment is described as follows: NCI In Vivo Anticancer Drug Screen. Data for tumor model P388 Leukemia (intraperitoneal) in CD2F1 (CDF1) mice. Conditions: endpoint: median survival time, higher = longer survival. Summed up:
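Mice carrying the transplanted tumor received test compound or vehicle. Survival was recorded in each group, and the value is the treated-group measurement divided by that of the vehicle-treated control group.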

Setting [1] is: dose: 50.0 mg/kg/injection, schedule: Q01DX005 (ip), vehicle: saline with Tween-80.
Setting [2] is: dose: 200.0 mg/kg/injection, schedule: Q01DX005 (ip), vehicle: saline with Tween-80.
Setting [3] is: dose: 50.0 mg/kg/injection, schedule: Q01DX009 (ip), vehicle: saline with Tween-80.
Where [4] appears, read: dose: 100.0 mg/kg/injection, schedule: Q01DX009 (ip), vehicle: saline with Tween-80.
The mark [5] stands for this setting: dose: 60.0 mg/kg/injection, schedule: Q01DX005 (ip), vehicle: saline with Tween-80.
The mark [6] stands for this setting: dose: 120.0 mg/kg/injection, schedule: Q01DX005 (ip), vehicle: saline with Tween-80.
Setting [7] is: dose: 240.0 mg/kg/injection, schedule: Q01DX005 (ip), vehicle: saline with Tween-80.
Where [8] appears, read: dose: 100.0 mg/kg/injection, schedule: Q04DX002 (ip), vehicle: saline with Tween-80.
[9] abbreviates: dose: 60.0 mg/kg/injection, schedule: Q01DX005 (ip), vehicle: Klucel (hydroxypropylcellulose) (HPC).
Where [10] appears, read: dose: 120.0 mg/kg/injection, schedule: Q01DX005 (ip), vehicle: Klucel (hydroxypropylcellulose) (HPC).
The mark [11] stands for this setting: dose: 6.25 mg/kg/injection, schedule: Q01DX009 (ip), vehicle: saline.
Setting [12] is: dose: 12.5 mg/kg/injection, schedule: Q01DX009 (ip), vehicle: saline.
Where [13] appears, read: dose: 50.0 mg/kg/injection, schedule: Q01DX009 (ip), vehicle: saline.

SMILES strings stand for the structures. “And” between values parts separate entries of the source, which are not always exact repeats. Identical values can stand only once. Inconclusive results and toxic doses are left out.

For `CCOC(=O)C(=CNc1cccc2c(O)cccc12)C(=O)OCC`, the T/C runs as follows: (dose: 12.5 mg/kg/injection, schedule: Q01DX005 (ip), vehicle: saline with Tween-80) 90 % of control; (dose: 25.0 mg/kg/injection, schedule: Q01DX005 (ip), vehicle: saline with Tween-80) 93 % of control; under setting [1], 97 % of control; under setting [2], 95 % of control.
For `COc1ccc2c(c1)C(=O)OC2`, the T/C is, setting by setting: under setting [3], 102 % of control; under setting [4], 101 % of control; (dose: 200.0 mg/kg/injection, schedule: Q01DX009 (ip), vehicle: saline with Tween-80) 99 % of control.
With `CCCCCCCCCCCCCCCCCC(=O)[O][Hg][c]1ccccc1`, the T/C runs as follows: (dose: 2.5 mg/kg/injection, schedule: Q04DX003 (ip), vehicle: Klucel (hydroxypropylcellulose) (HPC)) 100 % of control; (dose: 5.0 mg/kg/injection, schedule: Q04DX003 (ip), vehicle: Klucel (hydroxypropylcellulose) (HPC)) 100 % of control; (dose: 10.0 mg/kg/injection, schedule: Q04DX003 (ip), vehicle: Klucel (hydroxypropylcellulose) (HPC)) 100 % of control.
For `CNC(=O)OCc1nn(-c2ccccc2)c(C)c1COC(=O)NC`, the T/C reads like this: (dose: 12.5 mg/kg/injection, schedule: Q01DX009 (ip), vehicle: distilled water + Tween-80) 97 % of control; (dose: 25.0 mg/kg/injection, schedule: Q01DX009 (ip), vehicle: distilled water + Tween-80) 97 % of control; (dose: 50.0 mg/kg/injection, schedule: Q01DX009 (ip), vehicle: distilled water + Tween-80) 97 % of control; (dose: 100.0 mg/kg/injection, schedule: Q01DX009 (ip), vehicle: distilled water + Tween-80) 92 % of control; (dose: 200.0 mg/kg/injection, schedule: Q01DX009 (ip), vehicle: distilled water + Tween-80) 92 % of control.
In the case of `Cc1c(-c2c(Cl)cccc2Cl)noc1CN(C)C`, the T/C under setting [5] was 101 % of control, the T/C under setting [6] is 100 % of control and the T/C under setting [7] was 92 % of control.
In the same order, the values of `Cc1cc[n+](C2=C(Nc3c(C)cccc3C)C(=O)c3ccccc3C2=O)cc1` are 102 % of control, 102 % of control and 114 % of control.
In the case of `O=C(O)c1nc2ccccc2c2ncccc12`, the T/C is 101 % of control (dose: 25.0 mg/kg/injection, schedule: Q04DX002 (ip), vehicle: saline with Tween-80); 92 % of control (dose: 50.0 mg/kg/injection, schedule: Q04DX002 (ip), vehicle: saline with Tween-80); 94 % of control under setting [8].
For the compound `Cc1ccc(S(=O)(=O)OCCOc2ccc(-c3nc4ccccc4[nH]3)cc2)cc1`, the T/C runs as follows: (dose: 100.0 mg/kg/injection, schedule: Q01DX001 (ip), vehicle: saline with Tween-80) 92 % of control; (dose: 200.0 mg/kg/injection, schedule: Q01DX001 (ip), vehicle: saline with Tween-80) 90 % of control; (dose: 400.0 mg/kg/injection, schedule: Q01DX001 (ip), vehicle: saline with Tween-80) 101 % of control.
As to `CC1(C)N=C(N/N=C/c2ccccc2)SP1(=O)NNc1ncccn1` (stereo not given), the T/C runs as follows: under setting [9], 101 % of control; under setting [10], 103 % of control.
Take `O=C(O)CNC(=O)NC(Cc1ccccc1)C(=O)O` (stereo not given): the T/C is, setting by setting: under setting [1], 105 % of control; (dose: 100.0 mg/kg/injection, schedule: Q01DX005 (ip), vehicle: saline with Tween-80) 105 % of control; under setting [2], 93 % of control.
In the case of `COc1cccc(OC)c1SSCCN`, the T/C reads like this: (dose: 100.0 mg/kg/injection, schedule: Q04DX002 (ip), vehicle: suspension in saline) 107 % of control; (dose: 200.0 mg/kg/injection, schedule: Q04DX002 (ip), vehicle: suspension in saline) 111 % of control.
As for `CCC(=N\NC(=S)NCCN(CC)CC)/C(C)=N/NC(=S)NCCN(CC)CC`, the T/C runs as follows: (dose: 1.56 mg/kg/injection, schedule: Q01DX009 (ip), vehicle: saline) 94 % of control; (dose: 3.13 mg/kg/injection, schedule: Q01DX009 (ip), vehicle: saline) 118 % of control; under setting [11], 106 % of control; under setting [12], 101 % of control.
For `O=NN(CCCl)C(=O)N1CCCOC1=O`, the T/C was 115 % of control and 121 % of control (dose: 12.5 mg/kg/injection, schedule: Q01DX001 (ip), vehicle: saline with Tween-80); 116 % of control (dose: 25.0 mg/kg/injection, schedule: Q01DX001 (ip), vehicle: saline with Tween-80).
As to `COc1ccc(/C=C/C2C(C#N)(C#N)C(OC)(OC)C2(OC)OC)cc1` (stereo not given), the T/C reads like this: under setting [9], 101 % of control; under setting [10], 102 % of control; (dose: 240.0 mg/kg/injection, schedule: Q01DX005 (ip), vehicle: Klucel (hydroxypropylcellulose) (HPC)) 98 % of control.
On to `CCCOC1=NC2=NC(N3CCCC3)=NC3=C(Cl)C=C(Cl)C(=N1)N23`, for which the T/C reads like this: (dose: 25.0 mg/kg/injection, schedule: Q04DX002 (ip), vehicle: Klucel + Tween-80) 94 % of control; (dose: 50.0 mg/kg/injection, schedule: Q04DX002 (ip), vehicle: Klucel + Tween-80) 87 % of control; (dose: 100.0 mg/kg/injection, schedule: Q04DX002 (ip), vehicle: Klucel + Tween-80) 116 % of control and 86 % of control.
Take `CCOC(=O)/[C](=N\N=P(N(C)C)(N(C)C)N(C)C)[Hg]/[C](=N/N=P(N(C)C)(N(C)C)N(C)C)C(=O)OCC`: the T/C was 101 % of control and 94 % of control under setting [11]; 99 % of control and 94 % of control under setting [12]; 103 % of control and 108 % of control (dose: 25.0 mg/kg/injection, schedule: Q01DX009 (ip), vehicle: saline); 106 % of control and 110 % of control under setting [13].
Regarding `COc1cccc(C(Nc2ncccn2)c2cc3c(cc2O)OCO3)c1O` (stereo not given), the T/C is, setting by setting: under setting [5], 103 % of control; under setting [6], 94 % of control; under setting [7], 94 % of control.
On to `Nc1c(C(=O)O)[nH]c(=O)[nH]c1=O`, for which the T/C reads like this: (dose: 12.5 mg/kg/injection, schedule: Q01DX009 (ip), vehicle: saline with Tween-80) 119 % of control; (dose: 25.0 mg/kg/injection, schedule: Q01DX009 (ip), vehicle: saline with Tween-80) 119 % of control; under setting [3], 120 % of control; under setting [4], 118 % of control.
As for `O=C(O)CC(O)C(F)(F)C(F)(F)C(F)(F)F` (stereo not given), the T/C was 100 % of control (dose: 18.75 mg/kg/injection, schedule: Q04DX003 (ip), vehicle: saline); 95 % of control (dose: 37.5 mg/kg/injection, schedule: Q04DX003 (ip), vehicle: saline); 109 % of control (dose: 75.0 mg/kg/injection, schedule: Q04DX003 (ip), vehicle: saline).
For `BrC1C2CCC3OC3C12` (stereo not given), the T/C runs as follows: under setting [5], 104 % of control; under setting [6], 103 % of control.
Regarding `O=Cc1cccc(C=O)c1`, the T/C runs as follows: (dose: 0.63 mg/kg/injection, schedule: Q04DX002 (ip), vehicle: saline with Tween-80) 106 % of control; (dose: 1.25 mg/kg/injection, schedule: Q04DX002 (ip), vehicle: saline with Tween-80) 105 % of control; (dose: 2.5 mg/kg/injection, schedule: Q04DX002 (ip), vehicle: saline with Tween-80) 107 % of control.
For the compound `CC(=O)Nc1ccc2nc3ccc(NC(C)=O)cc3[n+](-c3ccccc3)c2c1`, the T/C reads like this: (dose: 31.3 mg/kg/injection, schedule: Q01DX010 (ip), vehicle: saline) 177 % of control; (dose: 62.5 mg/kg/injection, schedule: Q01DX010 (ip), vehicle: saline) 204 % of control; (dose: 125.0 mg/kg/injection, schedule: Q01DX010 (ip), vehicle: saline) 200 % of control.
Regarding `O=C1CC2OCC=C3CN4CCC56c7ccccc7N1C5C2C3CC46` (stereo not given), the T/C reads like this: (dose: 0.2 mg/kg/injection, schedule: Q01DX009 (ip), vehicle: saline with Tween-80) 100 % of control; (dose: 0.4 mg/kg/injection, schedule: Q01DX009 (ip), vehicle: saline with Tween-80) 102 % of control; (dose: 0.8 mg/kg/injection, schedule: Q01DX009 (ip), vehicle: saline with Tween-80) 97 % of control.
`CC(C)(CCl)C(=O)O`: the T/C under setting [13] was 95 % of control.
In the case of `CCN(CC)C(=O)N1CCN(C(=O)c2cc(Nc3ccnc4cc(Cl)ccc34)ccc2O)CC1`, the T/C reads like this: under setting [8], 100 % of control; (dose: 200.0 mg/kg/injection, schedule: Q04DX002 (ip), vehicle: saline with Tween-80) 100 % of control; (dose: 400.0 mg/kg/injection, schedule: Q04DX002 (ip), vehicle: saline with Tween-80) 89 % of control.

These data come from PubChem BioAssay AID330 (DTP/NCI, 2004).
